# Where a name gives a salt, the structure may show the parent alone.
# Assay: Solubility of solid state forms of Encequidar mesylate
# Format: physicochemical
# Conditions: compared with amorphous Encequidar mesylate; no medium or method printed
structure (smiles),measurement,value
COc1cc2c(cc1OC)CN(CCc1ccc(-n3nnc(-c4cc(OC)c(OC)cc4NC(=O)c4cc(=O)c5ccccc5o4)n3)cc1)CC2 [Form B of Encequidar mesylate],solubility,surprisingly greater than the solubility of amorphous Encequidar mesylate
